The text below walks through data of PubChem BioAssay (NCI).

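Tested at 5 concentrations; 48 h exposure; 96-well plates; endpoints linearly interpolated, else capped at highest concentration. GI50 marks 50% less growth. TGI: concentration producing complete growth inhibition.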

What all share (test): growth of human tumour cells (NCI), 48 h
Assay [1] relates to HOP-92 NSCLC.
Assay [2] concerns MALME-3M melanoma.
Assay [3] relates to NCI-H23 lung.
Assay [4] relates to NCI-H460 lung.
The test system of assay [5] is SF-268 CNS.
The test system of assay [6] is SK-MEL-28 melanoma.
The subject of assay [7] is HS 578T breast.
Assay [8] concerns K-562 leukemia.
For assay [9], the system named is T-47D breast.

With `NC(N)=NS(=O)(=O)c1ccc(NC(=O)c2c3ccccc3nc3ccccc23)cc1`, the TGI in assay [1], in assay [2], in [3], in [4], in [5] and in [6] was greater than 100 µM each time.
Turning to `C=CCn1c(=O)c(-c2ccccc2)c(O)c2ccccc21`, the TGI in assay [1], in assay [7], in assay [8], in [2], in assay [3] and in assay [4] was greater than 100 µM each time. In addition, the TGI in assay [5] and in assay [6] was greater than 100 µM in each case.
Regarding `Cc1c2cccc-2c(N(C)C)cc2c1[nH]c1ccccc12`, the TGI was 3.54 µM in [1]; 13.8 µM in assay [7]; 10.9 µM in assay [2]; 32.3 µM in assay [3]; 32.2 µM in assay [4]; 16.7 µM in assay [5]. Also, the values for the TGI in assay [6] and in assay [9] were 6.84 µM and 5.09 µM, respectively.
In the case of `COc1cc(C=Nc2ccc(Oc3ccc(Cl)cc3)c(Cl)c2)cc(OC)c1OC`, the TGI in assay [1] was found to be 39.4 µM; in assay [7], 41.6 µM; in [2] it was 35.8 µM; in [3] it was 42 µM; in assay [4] it was 39.9 µM; in assay [5], 30.5 µM. Further, the TGI in assay [6] came to 53.8 µM; in [9] it was 39.7 µM.
For `CC(C)(Oc1ccc(C2C[C@H]2Cl)cc1)C(=O)O` (some centres undefined), the TGI in assay [1], in assay [7], in assay [8], in assay [4], in assay [6] and in assay [9] was greater than 100 µM throughout.
Turning to `COc1cc(NS(C)(=O)=O)ccc1N1Cc2cnc3ccc4[nH]ccc1c4c23`, the TGI in assay [1] was greater than 100 µM; in assay [7], greater than 100 µM; in assay [8], greater than 100 µM; in assay [3] it was greater than 100 µM; in assay [4] it was 43.8 µM; in [5] it was 75.2 µM. The TGI in assay [6] was greater than 100 µM; in assay [9] it was 83.6 µM.
Regarding `OB1OCc2ccccc21`, the TGI in [7], in assay [8], in [2], in assay [3], in [4] and in assay [5] was greater than 100 µM each time. Besides, the TGI in [6] was 63 µM; in [9] it was greater than 100 µM.
With `N#C/C(=C/NC(=S)Nc1ccc(S(N)(=O)=O)cc1)C(N)=O`, the TGI in assay [1], in [7], in assay [2], in assay [3], in assay [4] and in [5] was greater than 100 µM each time. In [6], this compound had a TGI greater than 100 µM.
For the compound `CCOC(=O)C1C(=O)C=C(c2cc(C)ccc2O)CC1c1cccc(Br)c1` (centres undefined), the TGI in assay [1] amounted to 29.8 µM; in [7], 34.4 µM; in assay [8], 46.8 µM; in [2], 42.4 µM; in assay [3], 46.5 µM; in assay [4], 50.6 µM. Besides, the TGI in [5] stood at 77.9 µM; in assay [9], 72 µM.
As for `CSc1nc(Cl)c2c(n1)Sc1ncnn1C2O` (centres undefined), the TGI in assay [1] worked out at 30.3 µM; in [7], 23.2 µM; in [8], 30.6 µM; in assay [2] it was 8.22 µM; in [3], 30.9 µM; in assay [4] it was 46.4 µM. Also, the TGI in assay [5] is 26.7 µM; in [6], greater than 100 µM.
Take `COC(=O)c1ccc2[nH]c3c(c2c1)CC(=O)Nc1ccccc1-3`: the TGI in assay [7] is greater than 100 µM; in assay [8], 97.7 µM; in assay [2] it was greater than 100 µM; in assay [4], greater than 100 µM; in assay [5], greater than 100 µM; in [6], greater than 100 µM. Moreover, the TGI in assay [9] was greater than 100 µM.
For the compound `C[N+]12C=CC=C1C(N1CCCC1)c1sc(-c3ccc(Cl)cc3)cc12` (centres undefined), the TGI in [7] was found to be 50.9 µM; in assay [2] it was 31.1 µM; in assay [4], 32.6 µM; in [5], 34.3 µM; in assay [6] it was 31.6 µM; in assay [9], 35.4 µM.
Take `CC(C)(C)OC(=O)NCCNC(=O)OCc1ccccc1`: the TGI in assay [1], in assay [7], in [8], in assay [2], in assay [3] and in [4] was greater than 100 µM throughout. Besides, the TGI in assay [5] and in assay [6] was greater than 100 µM each time.
For `CC1=CC(=O)C[C@]2(C)[C@@H](O)CC(C(C)CO)C[C@@H]12` (some centres undefined), the TGI in [1], in [3], in [4], in assay [5], in assay [6] and in assay [9] was greater than 100 µM in each case.
`COc1ccc2[nH]c3c(C)c4ccnc(NCCCN(C)CCCNC(=O)NCCCN(C)CCCNc5nccc6c(C)c7[nH]c8ccc(OC)cc8c7c(C)c56)c4c(C)c3c2c1`: the TGI in [1] is 3.93 µM; in assay [7], greater than 50 µM; in [8], greater than 50 µM; in assay [3] it was greater than 19 µM; in [4], 1.34 µM; in [5] it was 3.25 µM. The TGI in assay [6] was greater than 15.5 µM; in assay [9], 2.29 µM.
Regarding `CC(C)(C)OC(=O)N(CCCN)CCCCN(CCCN)C(=O)OC(C)(C)C`, the TGI in [1], in [7], in assay [8], in [3], in [4] and in [5] was greater than 100 µM each time. In addition, the TGI in assay [6] and in assay [9] was greater than 100 µM throughout.
Take `CCC1(CC)C(=O)N(C(=O)c2ccc(Cl)cc2)N(C(=O)c2ccccc2Cl)C1=O`: the TGI in [7] is greater than 100 µM; in assay [8] it was greater than 100 µM; in assay [2], greater than 100 µM; in assay [3], greater than 100 µM; in [4] it was 41.8 µM; in assay [5], greater than 100 µM. Further, the TGI in assay [6] and in [9] was greater than 100 µM throughout.
Take `O=C1NC(N2CCCC(CO)C2)=N/C1=C\c1ccc(O)cc1` (centres undefined): the TGI in [1], in assay [7], in assay [8], in assay [2], in assay [3] and in assay [5] was greater than 100 µM in each case. In addition, the TGI in assay [6] and in [9] was greater than 100 µM in each case.
As to `COC(=O)C1(C(=O)OC)CC2=C(S(=O)(=O)c3ccccc3)C[C@@H](C#N)[C@H]2C1`, the TGI in assay [1], in [8], in [2], in assay [3], in assay [4] and in assay [5] was greater than 100 µM in each case. In assay [6], this compound showed a TGI greater than 100 µM.
`Clc1ccc(CCn2ccc3ccccc32)c(Cl)c1`: the TGI in [1], in assay [7], in [8], in assay [2], in assay [3] and in assay [4] was greater than 100 µM throughout. In [5], the TGI is greater than 100 µM.
Turning to `COC[C@H](Cc1ccccc1)N=Cc1ccccc1`, the TGI in [7], in assay [8], in [2], in assay [3], in [4] and in assay [5] was greater than 100 µM throughout. In addition, the TGI in [6] and in assay [9] was greater than 100 µM in each case.
Turning to `O=c1[nH]/c(=C/c2ccc(OCc3ccccc3)cn2)c(=O)[nH]/c1=C/c1cccnc1`, the TGI in assay [1] is greater than 100 µM; in [2] it was greater than 27.6 µM; in assay [4], 7.82 µM; in assay [5] it was greater than 35 µM; in assay [6], greater than 100 µM; in assay [9], greater than 100 µM.
In the case of `CC1=C2CC3=C(C)C(=O)O[C@H]3C[C@@H](C)[C@@H]2CC1`, the TGI in [1], in assay [7], in [8], in assay [2], in [3] and in [4] was greater than 100 µM each time. Moreover, the TGI in assay [5] and in assay [6] was greater than 100 µM throughout.
As to `c1ccc(C2(c3cc4ccccc4[nH]3)OCCO2)cc1`, the TGI in assay [1], in [8], in assay [3], in assay [4], in assay [5] and in assay [6] was greater than 100 µM each time. Also, the TGI in assay [9] was greater than 100 µM.
Consider `CC(C)Oc1c(O)c2c3c(oc(=O)n3C=CC2c2ccccc2F)c1OC(C)C` (centres undefined), for which the TGI in assay [1], in assay [7], in assay [8], in assay [2], in assay [3] and in [4] was greater than 100 µM throughout. Further, the TGI in [5] and in [6] was greater than 100 µM each time.
As for `O=S(=O)(CC#CCS(=O)(=O)c1ccccc1)c1ccccc1`, the TGI in assay [1] is 3.39 µM; in assay [7] it was greater than 36.5 µM; in assay [2], 3.82 µM; in assay [3], 12.2 µM; in assay [4] it was 38.9 µM; in assay [5] it was 12.5 µM. Further, in [6], the TGI amounted to 25.7 µM.
For the compound `COc1cc2c(cc1C)NC(=O)/C2=C/c1c(Cl)n(C)c2ccccc12`, the TGI in assay [7] is 12.8 µM; in assay [8], greater than 100 µM; in assay [2], 22.5 µM; in assay [3] it was 21.6 µM; in assay [4], 29.1 µM; in assay [5], 16.2 µM. The TGI in assay [6] amounted to 62.6 µM; in assay [9], 19.3 µM.
Turning to `Nc1cc(N)c2nc(-c3ccccc3)c(Sc3ccc(F)cc3)nc2c1`, the GI50 is 22.9 µM in assay [1]; 27 µM in [7]; 39.6 µM in assay [8]; 19 µM in assay [3]; 21.7 µM in assay [4]; 17.6 µM in [5]. In addition, the GI50 in [6] is 23.4 µM. Moreover, the TGI was 54.8 µM in assay [1]; 62 µM in assay [7]; greater than 100 µM in assay [8]; 39.4 µM in assay [3]; 65.8 µM in assay [4]; 38.9 µM in assay [5]. The compound further displayed a TGI in assay [6] of 53.4 µM.
Regarding `COc1cccc(C(=O)C(O)c2cccc(OC)c2OC)c1OC` (centres undefined), the TGI in assay [1], in assay [7], in assay [2], in assay [3], in [4] and in assay [5] was greater than 100 µM throughout. Moreover, the TGI in assay [6] and in assay [9] was greater than 100 µM in each case.
As to `N#Cc1ccc(/C=C2\Cc3ccccc3C2=O)cc1`, the TGI in assay [7], in [8], in assay [3], in [4], in assay [5] and in [6] was greater than 100 µM in each case. This compound gave a TGI in [9] greater than 100 µM.
In the case of `Cc1ccc(-c2c(C#N)c(O)n(NS(=O)(=O)c3ccccc3)c(=O)c2C#N)cc1`, the TGI in assay [1], in assay [8], in assay [2], in [4], in assay [5] and in assay [6] was greater than 100 µM each time.
As for `COCN1C(=O)[C@@H]2C[C@@H](OC/C=C/CBr)CN2C(=O)c2ccccc21`, the TGI in [7] was greater than 100 µM; in assay [2] it was 35.3 µM; in assay [3] it was 81.5 µM; in assay [5], 83.4 µM; in assay [6], 45.4 µM; in [9], 59 µM.
Take `N#Cc1c(C#N)c(-c2ccco2)n(/N=C/c2ccco2)c1N`: the TGI in assay [1] is 61.2 µM; in assay [7], 71.2 µM; in assay [8] it was greater than 100 µM; in assay [2], greater than 100 µM; in assay [3], greater than 100 µM; in [4], greater than 100 µM. The TGI in assay [5] and in assay [9] was greater than 100 µM throughout.
